# Experimental data reported in patent US12158399B2, “CaMKK2 inhibitor compositions and methods of using the same” (Duke University, priority 2016, dated 2024).
# Tests used:
# bone marrow derived MDSC = test: In vitro MDSC generation from bone marrow with H2O2 or antioxidants; format: cell-based, mouse; details: added Day 0 and Day 3; 0.001 mM H2O2, 20 μM MitoTEMPO, 20 μM BHA
# Text: To further study how ROS regulates MDSC differentiation, low dose of H2O2 and two commonly used antioxidants, MitoTEMPO and Butylated hydroxyanisole (BHA), were separately added to the culture media during MDSC in vitro generation. At basal condition, KO marrow generated less M-MDSC cells while differentiated more into Ly6C−CD11c+I-A+ mature dendritic cells compared to WT ones. […] The higher level of ROS in CaMKK2 KO MDSCs limited M-MDSC accumulation by facilitating the myeloid cell differentiation.
# Bone marrow cells were prepared as described before. Cells after RBC lysis were seeded to 6-well plates (Coring, NY, USA) at 1×10^6 per well in 5 ml DMEM (Gibco, MA, USA) supplied with 10% FBS, 2 mM L-glutamine, 1.5 g/L sodium bicarbonate, 10 mM HEPES, 1.0 mM sodium pyruvate (all from Gibco, MA, USA), 10% fetal bovine serum (Hyclone, MA, USA), 40 nM recombinant mouse GM-CSF and 40 nM recombinant mouse IL-6 (Biolegend, CA, USA), and with or without 50% E.G7 supernatant. The supernatant was half-changed on Day 3. The floating cells were collected on Day 5 and enriched by anti-mouse Gr-1 Microbeads (Miltenyi, Bergisch Gladbach, Germany). The cells with the purity >90% were used. In some experiments as indicated, the cells were stained with APC anti-mouse Gr-1, PE anti-mouse/human CD11b (Biolegend, CA, USA). Double positive cells were sorted with BD FACS Aria II cell sorter (BD, NJ, USA).
# For MDSC and BMDC, only floating cells were collected. 1×10^6 cells were spun down in BD Falcon round-bottom polystyrene tubes (BD, NY, USA). The cell pellet was incubated with 50 μl PBS with 2% FBS with FITC anti-mouse CD11c, PE anti-mouse/human CD11b, PE-Cy7 anti-mouse Ly6G, APC anti-mouse F4/80, APC-Cy7 anti-mouse I-A (all from BioLegend, CA, USA), PerCP Cy5.5 anti-mouse Ly6C, and Fixable Viability Dye eFluor® 450 (eBioscience, CA, USA) at 4° C. for 15 min. Cells were washed once with 2 ml PBS with 2% FBS and fixed with 200 μl 1.5% PFA in 4° C. till analysis.
# E0771 cells [1] = test: Orthotopic E0771 mammary tumor growth; format: in vivo, mouse; details: orthotopic graft in syngeneic wildtype mice; STO-609 IP 3-times/week
# Experimental: (§1) E0771, 4T1 and Met1 grafts: 200,000 of the indicated cells were grafted orthotopically into the mammary fat pad of mice. 4T1 and Met1 cells were grafted in 50% matrigel. Resulting tumors were assessed by direct caliper measurement. To get sizable tumors in Camkk2−/− mice for IHC and flow cytometry studies, a higher number of E0771 (4×10^5) where grafted. This information has been reported in the corresponding figures.
# (§2) These drugs were administered intraperitoneally daily. […] GSK treatment was initiated at post-day 2.
# E0771 tumors = test: Flow cytometry of tumor-associated myeloid and lymphoid cells in E0771 tumors; format: in vivo, mouse; details: STO-609 vs vehicle treated mice
# Experimental: Tumors were removed from mice and minced with a surgical scalpel. Minced tissues were added to 5 ml HBSS containing Ca^2+ and Mg^2+ (ThermoFisher Scientific, MA, USA), and supplied with collagenase 2 mg/ml and DNase 0.1 mg/ml (Roche, Basel, Switzerland). Subsequently, they were transferred in gentleMACS C tubes, dissected with gentleMACS dissociator (Miltenyi, Bergisch Gladbach, Germany) and incubated for […] at 37° C. At the end of this incubation, tumors were dissected again with gentleMACS dissociator, and cell suspension passed through 70 μm-cell strainers (Coring, NY, USA), washed twice in PBS w/2% FBS and used for FACS analysis.
# Staining of tumor-infiltrating E0771 tumors: 5×10^6 cells suspension from dissected tumors were surface stained with APC Cy7-CD3, PE-CD8, PE Cy7-CD4, APC PD-1 (all from BioLegend, CA, USA). Cells were incubated for 15 min at 4° C., washed with PBS-2% FCS. PerCP/Cy5.5 PD-1 antibody (BioLegend, CA, USA) was used for intracellular staining on fixed and permeabilized cells, according with manufacture's protocol (BioLegend). For myeloid cells staining, cells were incubated with PE anti-mouse/human CD11b, PE-Cy7 anti-mouse Ly6G, APC anti-mouse F4/80 (all from BioLegend), PerCpCy5.5 anti-mouse Ly6C, APC Cy7-I-A and Fixable Viability Dye eFluor 450 (eBioscience, CA, USA) at 4° C. for 15 min in dark. Subsequently, cells were washed with PBS w/2% FBS and analyzed by FACS. Bone marrow-derived macrophages (1×10^6) were stained with PE anti-mouse/human CD11b, APC anti-mouse F4/80 (BioLegend), APC Cy7-I-A and Fixable Viability Dye eFluor 450 (eBioscience). The stained cells were analyzed using a BD FACSCanto flow cytometer (BD, NJ, USA). Data is analyzed using FlowJo (TreeStar, OR, USA).
# Met1 cells = test: Orthotopic Met1 mammary tumor growth; format: in vivo, mouse; details: syngeneic wildtype mice; IP 100 moles/Kg body weight 3-times/week
# Experimental: as §1
# (§3) […] […] GSK treatment was initiated at post-day 2.
# 4T1 cells = test: Orthotopic 4T1 mammary tumor growth; format: in vivo, mouse; details: syngeneic wildtype mice; IP 3-times/week
# Experimental: as §1, §3
# E.G7 tumor = test: Flow cytometry of tumors and spleens of E.G7 tumor bearing mice; format: in vivo, mouse; details: vs DMSO
# Experimental: The removed tumors were further minced with a surgical scalpel. The tissue were added to 5 ml HBSS w/Ca^2+ and Mg^2+ (ThermoFisher Scientific, MA, USA) supplied with collagenase 2 mg/ml and DNase 0.1 mg/ml (Roche, Basel, Switzerland) in gentleMACS C tubes and dissecting with gentleMACS dissociator (Miltenyi, Bergisch Gladbach, Germany). The samples were incubated in 37° C. for 15 min and passed through the 70 μm cell strainers (Coring, NY, USA). Cells were washed twice in PBS w/2% FBS before staining.
# For myeloid cells staining, 5×10^6 cells were incubated with FITC anti-mouse CD11c, PE anti-mouse/human CD11b, PE-Cy7 anti-mouse Ly6G, APC anti-mouse F4/80 (all from BioLegend, CA, USA), PerCpCy5.5 anti-mouse Ly6C, Fixable Viability Dye eFluor® 450 (eBioscience, CA, USA) at 4° C. for 15 min in dark and washed with PBS w/2% FBS. The stained cells were analyzed using a BD FACSCanto flow cytometer (BD, NJ, USA). Data is analyzed using FlowJo (TreeStar, OR, USA).
# E.G7 cells = test: E.G7 lymphoma flank tumor growth under STO-609 treatment; format: in vivo, mouse; details: C57BL/6 mice, peritoneal injection every 2-3 days, vs DMSO; p<0.001
# Experimental: Flank Tumor Model 1×10^5 E.G7 cells were suspended in 100 μl PBS and implanted subcutaneously to the right side flank of the mice. Tumors were monitored using bioluminescence imaging each week. Tumor sizes were measured with calibrator every 3-4 days and calculated as: Length×Width×Width/2. In some experiments 5×10^5 cells were used as indicated. Mice were sacrificed when tumor reached 2 cm^3. ELISpot Analysis
# STO-609 was purchased from TORIS Bioscience (Bristol, UK). The C57BL/6 mice were purchased from the Jackson Laboratory (CA, USA). The mice were inoculated with 5×10^5 E.G7 cells to the right flank subcutaneously on day 0. On day 7, the tumor growth was measured using bioluminescent imaging. All the mice with visible tumor under luciferin detection were randomized into STO-609 treatment group or DMSO control group. […] The tumor size was monitored using a calibrator every 3-4 days. The experiment was terminated when the tumor reached 2 cm^3.
# E0771 cells [2] = test: E0771 tumor growth in CD8+ T-cell depleted Camkk2-/- mice; format: in vivo, mouse; details: anti-CD8 treated Camkk2-/- mice, STO-609 vs vehicle
# Experimental: as §1, §2
# To deplete CD8+ cells, mice were injected intra-peritoneally with anti-mouse CD8 monoclonal antibody or its IgG control isotype (BioXCell, NH, USA) each at 200 μl at the concentration of 1 mg/ml 4 days and 1 day before tumor inoculation, and every 3 days after tumor cell injection. The effect of CD8 depletion was monitored by flow cytometry using 50 μl peripheral blood staining with APC anti-mouse CD8, APC-Cy7 anti-mouse CD45.2 (BioLegend) at the same time.
compound,measurement,setting,value
"COc1ccc(O)c(C(C)(C)C)c1 [BHA, Butylated hydroxyanisole]",M-MDSC number / accumulation,bone marrow derived MDSC,same phenomenon was also observed
same,differentiation towards Ly6C-IA+CD11c+ dendritic cells,bone marrow derived MDSC,same phenomenon was also observed
CCCc1ccnc2[nH]cc(-c3ccc(C(=O)N[C@@H](CO)c4ccccc4)cc3)c12 [GSKi],E0771 mammary tumor growth (tumor volume),E0771 cells [1],inhibited
OO [H2O2],M-MDSC number / accumulation,bone marrow derived MDSC,significantly decreased
same,differentiation towards Ly6C-IA+CD11c+ dendritic cells,bone marrow derived MDSC,increased both the count and percentage
CC1(C)CC(NC(=O)C[P+](c2ccccc2)(c2ccccc2)c2ccccc2)CC(C)(C)N1[O] [MitoTEMPO],M-MDSC number / accumulation,bone marrow derived MDSC,significantly induced M-MDSC accumulation
same,differentiation towards Ly6C-IA+CD11c+ dendritic cells,bone marrow derived MDSC,decreased the differentiation
O=C(O)c1ccc2c3c1cccc3c(=O)n1c3ccccc3nc21 [STO-609],CD4+ T cells in E0771 tumors,E0771 tumors,promoting accumulation
same,CD8+ T cells in E0771 tumors,E0771 tumors,promoting accumulation
same,MHCII I-A high macrophages in E0771 tumors,E0771 tumors,promoting accumulation
same,NK-T cells in E0771 tumors,E0771 tumors,promoting accumulation
same,Met1 mammary tumor growth (tumor volume),Met1 cells,inhibited
same,4T1 mammary tumor growth (tumor volume),4T1 cells,inhibited
same,percentage of CD3 in the tumors,"E.G7 tumor; E.G7 tumors, p<0.05",significantly higher
same,percentage of M-MDSC in the spleens,"E.G7 tumor; Ly6C+ in CD11b+ population, p<0.001",much lower
same,lymphoma growth (E.G7 tumor size),E.G7 cells,significantly suppressed
same,E0771 tumor growth in CD8+ T-cell depleted CamKK2-/- mice,E0771 cells [2],without effect
same,E0771 mammary tumor growth (tumor volume),E0771 cells [1],antitumor activity
